Source: patent US7070811B2, “Directly compressible formulations of azithromycin” (Pfizer Inc., priority 2001, dated 2006)
Each block holds one molecule with its values, some of them ahead of it.

What was measured:
[1] = Indices of Tableting Performance (Hiestand and Smith); format: physicochemical; details: bulk azithromycin; for Brittle Fracture Index (BFI): Lots 1, 2 and 4 milled (Fitzmill, 0.027" screen, knives, high speed) for this test; for Strain Index (SI) / Tensile Strength / Worst Case Bonding Index (BLw) × 10^2: Lots 1, 2 and 4 milled for this test
Protocol: Indices of tableting performance, for several azithromycin forms, were assessed to identify any mechanical deficiencies or attributes that may affect the ability to develop a direct compression tablet formulation of azithromycin. This assessment was performed in accordance with the procedures described in “Indices of Tableting Performance” H. E. N. Hiestand and D. P. Smith, Powder Technology 38 [1984] pp. 145–159.
More specifically, the Brittle Fracture Index, BFI, was calculated from the ratio of a material's regular tensile strength to its compromised tensile strength. Strain Index, SI, was determined from the dynamic indentation hardness test. Worst Case Bonding Index was determined by assessing the extent of particle bonding remaining after decompression assuming a very short compression dwell time and a plastic mechanism of particle separation during decompression.
Bulk azithromycin lots 1, 2, 4, 7, 10 and 11 are different crystalline forms, respectively, forms N, M, G, A, F and J. Lots 1, 2 and 4 were milled with a Fitzmill (Model JT, The Fitzpatrick Co., Elmhurst, Ill.) using a 0.027″ screen and knives at high speed in an attempt to match the smaller particle size of Lot 7. Lots 10 and 11 were evaluated as is due to their relatively small particle sizes.

[2] = Carr's Compressibility Index from initial and tapped density; format: physicochemical; details: for Carr's Index: blend with ˜60% drug loading
Protocol: Carr's Compressibility Index is a simple test to evaluate flowability by comparing both the initial and final (tapped) densities and the rate of packing down. A useful empirical guide to flow is given by Carr's compressibility index: Compressibility Index(%)=[(tapped density−initial density)/tapped density]×100
Carr's Compressibility Index of the azithromycin bulk was measured by taking an initial density of a 15 gram sample in a 100 ml graduated cylinder. The sample was tapped 2000 times on a VanKel Tap Density Tester (Model 50-1200, Edison, N.J.) and the tapped density of the 15 gram sample in the 100 ml graduated cylinder was taken. The procedure is described in Int. J. Pharm. Tech. & Prod. Mfr., 6(3) 10–16, 1985.
The ingredients were weighed (except for the magnesium stearate), combined and blended in a low shear blender for 30 minutes. The blend was passed through a U.S. standard No. 20 or No. 25 mesh screen to delump the blend. The screened blend was returned to the blender and blended for an additional 30 minutes. Prior to the addition of the magnesium stearate, the initial and tapped densities of the blend were determined from which a Carr's Compressibility Index for flow was calculated for the blend. Magnesium stearate was then added to the blend, after which it was blended for an additional five minutes.

Brittle Fracture Index (BFI) ([1]; listed as #1 Form N): 0.05
Strain Index (SI) ([1]; listed as #1 Form N): 0.0044
Tensile Strength ([1]; listed as #1 Form N): 0.75 Mpa
Worst Case Bonding Index (BLw) × 10^2 ([1]; listed as #1 Form N): 0.7
Structure (SMILES): CC[C@H]1OC(=O)[C@H](C)[C@@H](O[C@H]2C[C@@](C)(OC)[C@@H](O)[C@H](C)O2)[C@H](C)[C@@H](O[C@@H]2O[C@H](C)C[C@H](N(C)C)[C@H]2O)[C@](C)(O)C[C@@H](C)CN(C)[C@H](C)[C@@H](O)[C@]1(C)O [Lot 1, azithromycin]

Brittle Fracture Index (BFI) ([1]; listed as #2 Form M): 0.10
Strain Index (SI) ([1]; listed as #2 Form M): 0.0048
Tensile Strength ([1]; listed as #2 Form M): 0.79 Mpa
Worst Case Bonding Index (BLw) × 10^2 ([1]; listed as #2 Form M): 1.0
Structure (SMILES): CC[C@H]1OC(=O)[C@H](C)[C@@H](O[C@H]2C[C@@](C)(OC)[C@@H](O)[C@H](C)O2)[C@H](C)[C@@H](O[C@@H]2O[C@H](C)C[C@H](N(C)C)[C@H]2O)[C@](C)(O)C[C@@H](C)CN(C)[C@H](C)[C@@H](O)[C@]1(C)O [Lot 2, azithromycin]

Strain Index (SI) ([1]; listed as #4 Form G): 0.0043
Tensile Strength ([1]; listed as #4 Form G): 1.03 Mpa
Worst Case Bonding Index (BLw) × 10^2 ([1]; listed as #4 Form G): 0.8
Structure (SMILES): CC[C@H]1OC(=O)[C@H](C)[C@@H](O[C@H]2C[C@@](C)(OC)[C@@H](O)[C@H](C)O2)[C@H](C)[C@@H](O[C@@H]2O[C@H](C)C[C@H](N(C)C)[C@H]2O)[C@](C)(O)C[C@@H](C)CN(C)[C@H](C)[C@@H](O)[C@]1(C)O [Lot 4, azithromycin]

Carr's Compressibility Index ([2]; blend of 59.3 wt % azithromycin without glidant): 30
Structure (SMILES): CC[C@H]1OC(=O)[C@H](C)[C@@H](O[C@H]2C[C@@](C)(OC)[C@@H](O)[C@H](C)O2)[C@H](C)[C@@H](O[C@@H]2O[C@H](C)C[C@H](N(C)C)[C@H]2O)[C@](C)(O)C[C@@H](C)CN(C)[C@H](C)[C@@H](O)[C@]1(C)O [Lot 6, azithromycin]

Brittle Fracture Index (BFI) ([1]; listed as #7 Form A): 0.10
Strain Index (SI) ([1]; listed as #7 Form A): 0.0044
Tensile Strength ([1]; listed as #7 Form A): 0.99 Mpa
Worst Case Bonding Index (BLw) × 10^2 ([1]; listed as #7 Form A): 0.9
Structure (SMILES): CC[C@H]1OC(=O)[C@H](C)[C@@H](O[C@H]2C[C@@](C)(OC)[C@@H](O)[C@H](C)O2)[C@H](C)[C@@H](O[C@@H]2O[C@H](C)C[C@H](N(C)C)[C@H]2O)[C@](C)(O)C[C@@H](C)CN(C)[C@H](C)[C@@H](O)[C@]1(C)O [Lot 7, azithromycin]

Carr's Index [2]: 37
Structure (SMILES): CC[C@H]1OC(=O)[C@H](C)[C@@H](O[C@H]2C[C@@](C)(OC)[C@@H](O)[C@H](C)O2)[C@H](C)[C@@H](O[C@@H]2O[C@H](C)C[C@H](N(C)C)[C@H]2O)[C@](C)(O)C[C@@H](C)CN(C)[C@H](C)[C@@H](O)[C@]1(C)O [Lot 8, azithromycin]

Brittle Fracture Index (BFI) ([1]; listed as #10 Form F): 0.37
Strain Index (SI) ([1]; listed as #10 Form F): 0.0041
Tensile Strength ([1]; listed as #10 Form F): 1.62 Mpa
Worst Case Bonding Index (BLw) × 10^2 ([1]; listed as #10 Form F): 0.9
Carr's Index [2]: 34
Structure (SMILES): CC[C@H]1OC(=O)[C@H](C)[C@@H](O[C@H]2C[C@@](C)(OC)[C@@H](O)[C@H](C)O2)[C@H](C)[C@@H](O[C@@H]2O[C@H](C)C[C@H](N(C)C)[C@H]2O)[C@](C)(O)C[C@@H](C)CN(C)[C@H](C)[C@@H](O)[C@]1(C)O [Lot 10, azithromycin]

Brittle Fracture Index (BFI) ([1]; listed as #11 Form J): 0.11
Strain Index (SI) ([1]; listed as #11 Form J): 0.0043
Tensile Strength ([1]; listed as #11 Form J): 0.69 Mpa
Worst Case Bonding Index (BLw) × 10^2 ([1]; listed as #11 Form J): 0.7
Structure (SMILES): CC[C@H]1OC(=O)[C@H](C)[C@@H](O[C@H]2C[C@@](C)(OC)[C@@H](O)[C@H](C)O2)[C@H](C)[C@@H](O[C@@H]2O[C@H](C)C[C@H](N(C)C)[C@H]2O)[C@](C)(O)C[C@@H](C)CN(C)[C@H](C)[C@@H](O)[C@]1(C)O [Lot 11, azithromycin]
